Experimental data as given in patent US12428406B2 (PMV Pharmaceuticals, Inc., priority 2019, dated 2025).

biological target: T1, p53 Y220C (Homo sapiens, UniProt P04637, Y220C); test: In vitro DNA binding activity assay (HTRF / TR-FRET): stabilization of p53 Y220C and increase of its DNA binding activity; assay type: biochemical; details: recombinant His-tagged p53 Y220C DNA binding domain (aa 94-312), biotin-labeled consensus DNA, incubated at 27° C. or 29° C. for 60 min
T1 construct: The recombinant protein was a truncation mutant containing only amino acids 94-312 of p53; made in house; host or cells: E. coli
Outline: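 Homogeneous time-resolved fluorescence with E. coli-derived p53 Y220C and biotinylated consensus DNA. Room-temperature incubations of 15 and 20 min precede reading. SC150 denotes the compound concentration required for 50% increased DNA binding.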

T1 sequence (P04637 94-312, change not shown): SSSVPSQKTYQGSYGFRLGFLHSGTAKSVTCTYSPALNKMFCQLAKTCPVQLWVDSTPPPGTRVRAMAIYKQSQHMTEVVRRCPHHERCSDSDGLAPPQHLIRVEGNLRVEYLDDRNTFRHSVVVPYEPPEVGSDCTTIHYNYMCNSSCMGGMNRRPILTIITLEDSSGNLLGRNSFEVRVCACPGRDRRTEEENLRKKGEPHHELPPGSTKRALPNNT

Row | SMILES | SC150 (concentration of the compound required to increase the DNA binding activity by 50%)
1 | CCOc1cc(S(C)(=O)=O)ccc1NCC#Cc1cc2c(N[C@H]3CC[C@@H](N(C)C)CC3)cccc2n1CC(F)(F)F [Compound 96A, (1S,4S)-N^4-(2-{3-[(2-ethoxy-4-methane-sulfonylphenyl)amino]prop-1-yn-1-yl}-1-(2,2,2-trifluoroethyl)-1H-indol-4-yl)-N^1,N^1-dimethylcyclohexane-1,4-diamine] | ++ (++ = 0.05 μM ≤ SC150 < 0.1 μM)
2 | COC[C@H](O)CN1CC[C@@H](Nc2cccc3c2cc(C#CCNc2ccc(C(=O)OC)cc2OC)n3CC(F)(F)F)[C@@H](F)C1 [Compound 878A] | + (+ = 0 μM ≤ SC150 < 0.05 μM)
3 | COCCN1CCC(NC(=O)Nc2cccc3c2cc(C#CCNc2ccc(S(C)(=O)=O)cc2OC)n3CC(F)(F)F)CC1 [Compound 13A, 3-(2-{3-[(4-methanesulfonyl-2-methoxyphenyl)amino]prop-1-yn-1-yl}-1-(2,2,2-trifluoroethyl)-1H-indol-4-yl)-1-[1-(2-methoxyethyl)piperidin-4-yl]urea] | ++++ (++++ = 0.2 μM ≤ SC150 < 1 μM)
4 | CCNC(=O)c1ccc(NCC#Cc2cc3c(N[C@@H]4CCN(C)C[C@@H]4F)cccc3n2CC(F)(F)F)c(OC)c1 [Compound 940A, N-ethyl-4-{[3-(4-{[(3S,4R)-3-fluoro-1-methylpiperidin-4-yl]amino}-1-(2,2,2-trifluoroethyl)-1H-indol-2-yl)prop-2-yn-1-yl]amino}-3-methoxybenzamide] | + (+ = 0 μM ≤ SC150 < 0.05 μM)
5 | COCC(O)CN1CCC(Nc2cccc3c2cc(C#CCNc2ccc(S(C)(=O)=O)cc2OCC#N)n3CC(F)(F)F)CC1 (centres unmarked) [Compound 642A, 2-(2-{[3-(4-{[1-(2-hydroxy-3-methoxypropyl)piperidin-4-yl]amino}-1-(2,2,2-trifluoroethyl)-1H-indol-2-yl)prop-2-yn-1-yl]amino}-5-methanesulfonylphenoxy) acetonitrile] | + (+ = 0 μM ≤ SC150 < 0.05 μM)
6 | CCN1CC[C@@H](Nc2cccc3c2cc(C#CCNc2ccc(C(=O)O)cc2OC)n3CC(F)(F)F)[C@@H](F)C1 [Compound 829A, 4-{[3-(4-{[(3S,4R)-1-ethyl-3-fluoropiperidin-4-yl]amino}-1-(2,2,2-trifluoroethyl)-1H-indol-2-yl)prop-2-yn-1-yl]amino}-3-methoxybenzoic acid] | + (+ = 0 μM ≤ SC150 < 0.05 μM)
7 | COc1cc(S(C)(=O)=O)ccc1NCC#Cc1cc2c(N[C@H]3CCN(CC(=O)NCCN(Cc4ccccn4)Cc4ccccn4)C[C@H]3F)cccc2n1CC(F)(F)F (racemic) [Compound 891A, rac-N-(2-{bis[(pyridin-2-yl)methyl]amino}ethyl)-2-[(3R,4S)-3-fluoro-4-[(2-{3-[(4-methanesulfonyl-2-methoxyphenyl)amino]prop-1-yn-1-yl}-1-(2,2,2-trifluoroethyl)-1H-indol-4-yl)amino]piperidin-1-yl]acetamide] | + (+ = 0 μM ≤ SC150 < 0.05 μM)
8 | N#CCOc1cc(S(N)(=O)=O)ccc1NCC#Cc1cc2c(N[C@H]3CC[C@H](N4CCC5(CC4)COC5)CC3)cccc2n1CC(F)(F)F [Compound 379A, 3-(cyanomethoxy)-4-{[3-(4-{[(1R,4R)-4-{2-oxa-7-azaspiro[3.5]nonan-7-yl}cyclohexyl]amino}-1-(2,2,2-trifluoroethyl)-1H-indol-2-yl)prop-2-yn-1-yl]amino}benzene-1-sulfonamide] | + (+ = 0 μM ≤ SC150 < 0.05 μM)
9 | COc1cc(NC2CCN(C)CC2)c2cc(C#CCNc3ccc(S(C)(=O)=O)cc3OC)n(CC(F)(F)F)c2c1 [Compound 487A, 2-{3-[(4-methanesulfonyl-2-methoxyphenyl)amino]prop-1-yn-1-yl}-6-methoxy-N-(1-methylpiperidin-4-yl)-1-(2,2,2-trifluoroethyl)-1H-indol-4-amine] | ++ (++ = 0.05 μM ≤ SC150 < 0.1 μM)
10 | CS(=O)(=O)c1ccc(NCC#Cc2cc3c(N[C@H]4CC[C@H](N5CC6(COC6)C5)CC4)cccc3n2CC(F)(F)F)c(OCC(F)(F)F)c1 [Compound 231A, 2-(3-{[4-methane-sulfonyl-2-(2,2,2-trifluoro-ethoxy)phenyl]amino}prop-1-yn-1-yl)-N-[(1R,4R)-4-{2-oxa-6-azaspiro[3.3]heptan-6-yl}cyclohexyl]-1-(2,2,2-trifluoroethyl)-1H-indol-4-amine] | + (+ = 0 μM ≤ SC150 < 0.05 μM)
11 | CCC(=O)NS(=O)(=O)c1ccc(NCC#Cc2cc3c(N[C@H]4CC[C@@H](N5CC6(COC6)C5)CC4)cccc3n2CC(F)(F)F)c(OC)c1 [Compound 207A, N-(3-methoxy-4-{[3-(4-{[(1S,4S)-4-{2-oxa-6-azaspiro[3.3]heptan-6-yl}cyclo-hexyl]amino}-1-(2,2,2-trifluoroethyl)-1H-indol-2-yl)prop-2-yn-1-yl]amino}benzene-sulfonyl)propanamide] | + (+ = 0 μM ≤ SC150 < 0.05 μM)
12 | COc1cc(C(=O)N(C)C)ccc1NCC#Cc1cc2c(N[C@@H]3CCN(C)C[C@@H]3F)cccc2n1CC(F)(F)F [Compound 942A, 4-{[3-(4-{[(3S,4R)-3-fluoro-1-methylpiperidin-4-yl]amino}-1-(2,2,2-trifluoroethyl)-1H-indol-2-yl)prop-2-yn-1-yl]amino}-3-methoxy-N,N-dimethylbenzamide] | + (+ = 0 μM ≤ SC150 < 0.05 μM)
13 | CN1CCC(Nc2cccc3c2cc(C#CCOc2ccc(S(C)(=O)=O)cc2N(C)C)n3CC(F)(F)F)CC1 [Compound 488A, 2-{3-[2-(dimethylamino)-4-methanesulfonylphenoxy]prop-1-yn-1-yl}-N-(1-methylpiperidin-4-yl)-1-(2,2,2-trifluoroethyl)-1H-indol-4-amine] | +++ (+++ = 0.1 μM ≤ SC150 < 0.2 μM)
14 | CN1CCC(Nc2cccc3c2cc(C#CCNc2ccc(S(C)(=O)=O)s2)n3CC(F)(F)F)CC1 [Compound 523A] | + (+ = 0 μM ≤ SC150 < 0.05 μM)
15 | COc1cc(S(C)(=O)=O)ccc1NCC#Cc1cc2c(N[C@@H]3CC[C@H](N)C[C@H]3F)cccc2n1CC(F)(F)F [Compound 936A] | + (+ = 0 μM ≤ SC150 < 0.05 μM)
16 | CCC(=O)OC(COC)CN1CCC(Nc2cccc3c2cc(C#CCNc2ccc(S(C)(=O)=O)cc2OC)n3CC(F)(F)F)CC1 (centres unmarked) [Compound 602A, 1-{4-[(2-{3-[(4-methanesulfonyl-2-methoxyphenyl)amino]prop-1-yn-1-yl}-1-(2,2,2-trifluoroethyl)-1H-indol-4-yl)amino]piperidin-1-yl}-3-methoxypropan-2-yl propanoate] | + (+ = 0 μM ≤ SC150 < 0.05 μM)
17 | COc1cc(C(N)=O)c(F)cc1NCC#Cc1cc2c(N[C@H]3CC[C@H](N4CC5(COC5)C4)CC3)cccc2n1CC(F)(F)F [Compound 273A, 2-fluoro-5-methoxy-4-{[3-(4-{[(1R,4R)-4-{2-oxa-6-azaspiro[3.3]heptan-6-yl}cyclohexyl]amino}-1-(2,2,2-trifluoroethyl)-1H-indol-2-yl)prop-2-yn-1-yl]amino}benzamide] | + (+ = 0 μM ≤ SC150 < 0.05 μM)
18 | CNC(=O)c1ccc(NCC#Cc2cc3c(N[C@H]4CC[C@H](N5CC6(COC6)C5)CC4)cccc3n2CC(F)(F)F)c(OCCOC)c1 [Compound 236A, 3-(2-methoxyethoxy)-N-methyl-4-{[3-(4-{[(1R,4R)-4-{2-oxa-6-azaspiro[3.3]heptan-6-yl}cyclohexyl]amino}-1-(2,2,2-trifluoroethyl)-1H-indol-2-yl)prop-2-yn-1-yl]amino} benzamide] | + (+ = 0 μM ≤ SC150 < 0.05 μM)
19 | CN(C)[C@H]1CC[C@@H](Nc2cccc3c2cc(C#CCNc2ccc(S(C)(=O)=O)cc2OCC#N)n3CC(F)(F)F)CC1 [Compound 82A, 2-(5-methanesulfonyl-2-{[3-(4-{[(1S,4S)-4-(dimethylamino)cyclohexyl]amino}-1-(2,2,2-trifluoro-ethyl)-1H-indol-2-yl)prop-2-yn-1-yl]amino}phenoxy)acetonitrile] | + (+ = 0 μM ≤ SC150 < 0.05 μM)
20 | CCC(=O)NS(=O)(=O)c1ccc(NCC#Cc2cc3c(NC4CCN(CC(O)COC)CC4)cccc3n2CC(F)(F)F)c(OC)c1 (centres unmarked) [Compound 607A, N-(4-{[3-(4-{[1-(2-hydroxy-3-methoxypropyl)piperidin-4-yl]amino}-1-(2,2,2-trifluoroethyl)-1H-indol-2-yl)prop-2-yn-1-yl]amino}-3-methoxybenzenesulfonyl) propanamide] | + (+ = 0 μM ≤ SC150 < 0.05 μM)
21 | COc1cc(C(=O)O)ccc1NCC#Cc1cc2c(N[C@H]3CCN(CCO)C[C@H]3F)cccc2n1CC(F)(F)F [Compound 912A, 4-{[3-(4-{[(3R,4S)-3-fluoro-1-(2-hydroxyethyl)piperidin-4-yl]amino}-1-(2,2,2-trifluoroethyl)-1H-indol-2-yl)prop-2-yn-1-yl]amino}-3-methoxybenzoic acid] | + (+ = 0 μM ≤ SC150 < 0.05 μM)
22 | COCCNC(=O)c1ccc(NCC#Cc2cc3c(N[C@@H]4CCN(C)C[C@@H]4F)cccc3n2CC(F)(F)F)c(OC)c1 [Compound 945A, 4-{[3-(4-{[(3S,4R)-3-fluoro-1-methylpiperidin-4-yl]amino}-1-(2,2,2-trifluoroethyl)-1H-indol-2-yl)prop-2-yn-1-yl]amino}-3-methoxy-N-(2-methoxyethyl)benzamide] | + (+ = 0 μM ≤ SC150 < 0.05 μM)
23 | COc1cc(S(C)(=O)=O)ccc1NCC#Cc1cc2c(NC3CCN(C(=O)CC#N)CC3)cccc2n1CC(F)(F)F [Compound 746A] | + (+ = 0 μM ≤ SC150 < 0.05 μM)
